Test results as given in the supplement of paper PMC10627819.

Key:
Assay in all cases: fitness (endpoint OD595 vs no drug) (fraction); higher = more growth
[1] = system: S. aureus DSM 20231
Procedure, shortened: (§1)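 Bacterial fitness was scored as optical density at the stationary-phase transition relative to the robust mean of no-drug control wells. Scores are capped at 1. The growth data were OD595 readings every 30 min for 14 h at 37 °C, background-subtracted against the first reading, from 384-well plates inoculated at OD595 0.01 in TSB, LB Lennox or CY.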

[2] = system: B. subtilis 168
Procedure, shortened: as §1

[3] = system: S. pneumoniae D39V
Procedure, shortened: as §1
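Further: OD595 on entry to stationary phase over no-drug wells; at most 1.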

CN(C)[C@@H]1C(O)=C(C(N)=O)C(=O)[C@@]2(O)C(O)=C3C(=O)c4c(O)ccc(Cl)c4[C@@](C)(O)[C@H]3C[C@@H]12 [Chlortetracycline] + Cc1onc(-c2ccccc2)c1C(=O)N[C@@H]1C(=O)N2[C@@H]1SC(C)(C)[C@@H]2C(=O)O [Oxacillin]
fitness, one replicate
Conditions	partner 0.0078 µg/mL	partner 0.0155 µg/mL	partner 0.0156 µg/mL	partner 0.031 µg/mL	partner 0.0312 µg/mL	partner 0.0625 µg/mL	partner 0.075 µg/mL	partner 0.15 µg/mL	partner 0.3 µg/mL
[1], first compound 0.006 µg/mL	–	–	0.7	–	0.531	0.435	–	–	–
[2], first compound 0.0475 µg/mL	0.924	0.934	–	0.931	–	–	0.66	0.0283	0.0599
[2], first compound 0.095 µg/mL	0.926	0.814	–	0.674	–	–	0.581	0.0215	0.0316
[2], first compound 0.19 µg/mL	0.62	0.621	–	0.575	–	–	0.377	0.0401	0.0338

Conditions	fitness
[1], first compound 0.012 µg/mL, partner 0.0156 µg/mL	0.452
[1], first compound 0.012 µg/mL, partner 0.0312 µg/mL	0.379
[1], first compound 0.012 µg/mL, partner 0.0625 µg/mL	0.341
[1], first compound 0.024 µg/mL, partner 0.0156 µg/mL	0.204
[1], first compound 0.024 µg/mL, partner 0.0312 µg/mL	0.173
[1], first compound 0.024 µg/mL, partner 0.0625 µg/mL	0.165
[1], first compound 0.048 µg/mL, partner 0.0156 µg/mL	0.0968
[1], first compound 0.048 µg/mL, partner 0.0312 µg/mL	0.0599
[1], first compound 0.048 µg/mL, partner 0.0625 µg/mL	0.0746
[2], first compound 0.0475 µg/mL, partner 0.002 µg/mL	0.868
[2], first compound 0.0475 µg/mL, partner 0.004 µg/mL	0.829
[2], first compound 0.0475 µg/mL, partner 0.008 µg/mL	0.832
[2], first compound 0.095 µg/mL, partner 0.002 µg/mL	0.802
[2], first compound 0.095 µg/mL, partner 0.004 µg/mL	0.764
[2], first compound 0.095 µg/mL, partner 0.008 µg/mL	0.726
[2], first compound 0.19 µg/mL, partner 0.002 µg/mL	0.488
[2], first compound 0.19 µg/mL, partner 0.004 µg/mL	0.401
[2], first compound 0.19 µg/mL, partner 0.008 µg/mL	0.416
[3], first compound 0.012 µg/mL, partner 0.01 µg/mL	0.921
[3], first compound 0.012 µg/mL, partner 0.02 µg/mL	0.878
[3], first compound 0.012 µg/mL, partner 0.04 µg/mL	0.6
[3], first compound 0.024 µg/mL, partner 0.01 µg/mL	0.876
[3], first compound 0.024 µg/mL, partner 0.02 µg/mL	0.853
[3], first compound 0.024 µg/mL, partner 0.04 µg/mL	0.681
[3], first compound 0.048 µg/mL, partner 0.01 µg/mL	0.821
[3], first compound 0.048 µg/mL, partner 0.02 µg/mL	0.739
[3], first compound 0.048 µg/mL, partner 0.04 µg/mL	0.544
[3], first compound 0.375 µg/mL, partner 0.005 µg/mL	0.0823
[3], first compound 0.375 µg/mL, partner 0.01 µg/mL	0.0713
[3], first compound 0.375 µg/mL, partner 0.02 µg/mL	0.0526
[3], first compound 0.75 µg/mL, partner 0.005 µg/mL	0.104
[3], first compound 0.75 µg/mL, partner 0.01 µg/mL	0.0551
[3], first compound 0.75 µg/mL, partner 0.02 µg/mL	0.0755
[3], first compound 1.5 µg/mL, partner 0.005 µg/mL	0.0919
[3], first compound 1.5 µg/mL, partner 0.01 µg/mL	0.0809
[3], first compound 1.5 µg/mL, partner 0.02 µg/mL	0.0469
